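48-hour exposure; five concentrations; linearly interpolated endpoints. The concentration for 50% growth inhibition is given as GI50. Definition used: TGI = concentration required for complete inhibition of growth.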
Assays:
Test in all cases: inhibition of tumour cell growth, NCI panel, 48 h
EKVX NSCLC = tested on: EKVX NSCLC
MCF7 breast = tested on: MCF7 breast
SR leukemia = tested on: SR leukemia
A498 renal = tested on: A498 renal
HL-60(TB) leukemia = tested on: HL-60(TB) leukemia
KM12 colon = tested on: KM12 colon
HCT-15 colon = tested on: HCT-15 colon
SK-MEL-5 melanoma = tested on: SK-MEL-5 melanoma
PC-3 prostate = tested on: PC-3 prostate
IGROV1 ovarian = tested on: IGROV1 ovarian

Structure (SMILES) | GI50 (EKVX NSCLC) [µM] | TGI (EKVX NSCLC) [µM] | GI50 (MCF7 breast) [µM] | TGI (MCF7 breast) [µM] | GI50 (SR leukemia) [µM] | TGI (SR leukemia) [µM] | GI50 (A498 renal) [µM] | TGI (A498 renal) [µM] | GI50 (HL-60(TB) leukemia) [µM] | TGI (HL-60(TB) leukemia) [µM] | GI50 (KM12 colon) [µM] | TGI (KM12 colon) [µM] | GI50 (HCT-15 colon) [µM] | TGI (HCT-15 colon) [µM] | GI50 (SK-MEL-5 melanoma) [µM] | TGI (SK-MEL-5 melanoma) [µM] | GI50 (PC-3 prostate) [µM] | TGI (PC-3 prostate) [µM] | GI50 (IGROV1 ovarian) [µM] | TGI (IGROV1 ovarian) [µM]
C=CCSSc1ncnc2c1ncn2C1OC(CO)C(O)C1O (configuration not stated) | 69.3 | > 100 | 0.567 | 11.6 | 0.205 | 3.73 | 39.3 | > 100 | 3.27 | 19.9 | 3.24 | > 39.9 | 3.28 | > 100 | 3.43 | > 50.7 | 2.28 | > 22.4 | 0.0257 | 0.644
CC[CH2][Sn]([CH2]CC)([O]C(=O)Cc1ccc(F)cc1)[O][Sn]([CH2]CC)([CH2]CC)[O]C(=O)Cc1ccc(F)cc1 | 0.569 | 1.99 | 0.105 | 1.02 | 0.0781 | 5.03 | 0.149 | 0.469 | 0.0888 | – | 0.702 | 2.06 | 0.218 | 0.658 | 0.472 | 1.47 | 1 | 2.16 | 0.718 | 2.04
Nc1ncnc2c1ncn2C1OC(COC2C(CO)OC(OC(C(=O)O)C(O)C(OP(=O)(O)O)C(O)C(=O)O)C(O)C2O)C(O)C1O (configuration not stated) | – | > 100 | – | > 100 | – | > 100 | – | > 100 | – | > 100 | – | > 100 | – | > 100 | – | > 100 | – | > 100 | – | > 100
N#Cc1nn(-c2cc(=O)[nH]c3ccc(Br)cc23)c(N)c1C#N | 4.6 | > 100 | 64.1 | > 100 | 74.2 | > 100 | > 100 | > 100 | > 100 | > 100 | > 100 | > 100 | > 100 | > 100 | > 100 | > 100 | > 100 | > 100 | 37.9 | > 100
O=C(O)c1ccccc1Nc1ccc2nnc(-c3ccncc3)n2n1 | – | – | 2.85 | 24.6 | 5.23 | > 100 | 15.5 | 29.5 | 32.5 | > 100 | 7.34 | 23.9 | 6.88 | 66.3 | 3.92 | 14.8 | 13.4 | 31.9 | 5.29 | 22.9
O=S(=O)(Nc1ccccn1)c1ccc(N=Nc2ccc(O)c3ncccc23)cc1 | – | – | 1.05 | 8.4 | 0.647 | 19.3 | 1.77 | 5.73 | 0.77 | 2.61 | 1.17 | 15 | 0.844 | 15.7 | 0.683 | 1.63 | 1.29 | > 100 | 1.35 | 16.5
Cc1ccc(C2=NN(c3ccc(S(N)(=O)=O)cc3)C(c3cn(-c4ccccc4)nc3-c3ccccc3)C2)cc1 (configuration not stated) | – | – | 3.19 | > 100 | 5.92 | > 100 | 1.84 | 5.19 | 44 | > 100 | 4.27 | > 100 | 7.53 | > 100 | 16.6 | > 100 | 3.32 | > 100 | 28.3 | > 100
COc1ccc2nc(-c3cc4c([nH]c5ccccc54)c(-c4ccc(F)c(F)c4)n3)[nH]c2c1 | – | – | 3.23 | 17.1 | 1.97 | 6.7 | 9.84 | 56.6 | 2.78 | 7.12 | 2.93 | 13 | 3.41 | 16.7 | 4.91 | 21.9 | 3.25 | 22.5 | 4.62 | 34.7
O=c1ccnc(SCc2ccc(Cl)cc2)[nH]1 | – | > 100 | – | > 100 | – | > 100 | – | > 100 | – | – | – | > 100 | – | > 100 | – | > 100 | – | > 100 | – | > 100
Cn1c(=O)c2[nH]c(CCCCc3nc4c([nH]3)c(=O)n(C)c(=S)n4C)nc2n(C)c1=S | – | > 100 | – | > 100 | – | > 100 | – | > 100 | – | – | – | > 100 | – | > 100 | – | > 100 | – | > 100 | – | > 100
Oc1c(CN2CCN(c3ccccc3F)CC2)cc(Br)c2cccnc12 | – | – | 0.473 | 12.1 | 0.419 | 5.17 | 0.695 | 9.23 | 0.392 | 2.34 | 0.672 | > 100 | 0.143 | > 100 | 0.616 | > 21.4 | 0.807 | 31.7 | 0.808 | 14.5
